This passage reports IC50 and melting point results from patent US6441021B1, “Sulfonated amino acid derivatives and metalloproteinase inhibitors containing the same” (Shionogi & Co., Ltd., priority 1996, dated 2002).

Series [1] addresses T1, MMP-9 (92 kDa, gelatinase B; type IV collagenase) (Homo sapiens, UniProt P14780).
T1 construct: endogenous in cells; enzyme purified from the conditioned medium
Nature of the series: Assay of type IV collagenase inhibitors: activated MMP-9 with type IV collagenase activity kit substrate, fluorescent intensity. It counts as biochemical.

T1 sequence (P14780 107-707 limits assumed): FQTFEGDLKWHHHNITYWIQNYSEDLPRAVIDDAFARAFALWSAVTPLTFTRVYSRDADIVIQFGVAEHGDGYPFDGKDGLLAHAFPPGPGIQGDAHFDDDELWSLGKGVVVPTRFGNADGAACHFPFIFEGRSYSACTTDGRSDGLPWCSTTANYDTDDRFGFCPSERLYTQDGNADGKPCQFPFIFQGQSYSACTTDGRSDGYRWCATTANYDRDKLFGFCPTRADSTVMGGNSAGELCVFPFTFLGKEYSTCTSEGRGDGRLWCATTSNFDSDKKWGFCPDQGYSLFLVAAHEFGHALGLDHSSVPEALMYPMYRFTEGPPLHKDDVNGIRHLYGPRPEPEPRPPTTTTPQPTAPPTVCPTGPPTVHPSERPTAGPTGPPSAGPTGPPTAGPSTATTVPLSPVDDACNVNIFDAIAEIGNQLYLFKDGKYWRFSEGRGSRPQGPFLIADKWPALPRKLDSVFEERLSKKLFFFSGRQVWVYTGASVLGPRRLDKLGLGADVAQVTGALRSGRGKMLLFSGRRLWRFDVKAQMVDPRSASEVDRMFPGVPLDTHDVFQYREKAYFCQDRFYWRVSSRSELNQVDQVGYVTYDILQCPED

Regarding `O=C(O)[C@@H](Cc1ccccc1)NS(=O)(=O)c1ccc(-c2nnn(-c3ccc(C(F)(F)F)cc3)n2)cc1` [Example 229], the melting point was in the range of 197 to 198 °C. Moreover, the midpoint of inhibition in series [1], the IC50, lay at 215 nM.
As for `CC(C)(C)c1ccc(-n2nnc(-c3ccc(S(=O)(=O)N[C@H](Cc4ccccc4)C(=O)O)cc3)n2)cc1` [Example 236], the melting point is 224 to 226 °C. In series [1], this compound yielded an IC50 of 304 nM.
For the compound `O=C(O)[C@@H](Cc1ccccc1)NS(=O)(=O)c1ccc(-c2nnn(-c3ccc(Oc4ccccc4)cc3)n2)cc1` [Example 238], the melting point was 182 to 184 °C. The same compound had an IC50 in series [1] of 2850 nM.
Taken in the same sequence, the figures for `O=C(O)[C@@H](Cc1ccccc1)NS(=O)(=O)c1ccc(-c2nnn(-c3ccc(O)cc3)n2)cc1` [Example 239] were 226 to 228 °C and 243 nM.
Taken in the same sequence, the figures for `CC(C)[C@@H](NS(=O)(=O)c1ccc(-c2nnn(-c3ccc(Cl)cc3)n2)cc1)C(=O)O` [Example 244] were 223 to 225 °C and 16.5 nM.
For the compound `CC(C)[C@H](C(=O)NO)N(C)S(=O)(=O)c1ccc(Oc2ccccc2)cc1` [Example 253], the melting point lay in the range of 110 to 111 °C. Moreover, it took 0.039 nM to reach half-maximal inhibition in series [1] (IC50).
Taken in the same sequence, the figures for `CC(C)[C@H](C(=O)NO)N(Cc1ccccc1)S(=O)(=O)c1ccc(Oc2ccccc2)cc1` [Example 254] were 148 to 150 °C and 0.63 nM.
`CC(C)[C@H](C(=O)O)N(C)S(=O)(=O)c1ccc(-c2nnn(-c3ccccc3)n2)cc1` [Example 256] registered a melting point of 206 to 207 °C. Also, 601 nM corresponded to half-maximal inhibition in series [1] (IC50).
As to `CC(C)C[C@H](C(=O)O)N(C)S(=O)(=O)c1ccc(-c2nnn(-c3ccccc3)n2)cc1` [Example 257], the melting point fell in the range of 132 to 132.5 °C. In addition, in series [1], the midpoint of inhibition, the IC50, lay at 776 nM.
In turn, `CSc1ccc(-c2ccc(S(=O)(=O)N(C)[C@@H](C(=O)O)C(C)C)s2)cc1` [Example 259] displayed a melting point of 141 to 144 °C. In addition, the IC50 in series [1] came out at 130 nM.
